Patent publication US12448369B2 (Edgewise Therapeutics, Inc., priority 2023, dated 2025)
Marks after values point to notes of the source that are not given here.

Columns and labels:
[1] = tested on: Rabbit Psoas myofibrils (skeletal myosin ATPase); assay: Myofibril ATPase assay, rabbit psoas (skeletal) myofibrils; format: biochemical; conditions: for Skeletal EC25: rabbit psoas myofibrils
How it was run: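 Values are concentrations giving 75% (Y75) or 125% (Y125) of vehicle ATPase activity, from 4-parameter logistic fits of normalized rates. Rates came from linear regression of A340 over 75 min, NADH oxidation coupled to ADP via PK-LDH. Enzyme source: skeletal myofibrils from rabbit psoas, pH 7.0 pCa buffer.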

[2] = tested on: Porcine atria myofibrils (atrial myosin ATPase); assay: Myofibril ATPase assay, porcine atria myofibrils; format: biochemical
How it was run: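 Y75 (25% inhibition) or Y125 (activation) values come from 4-parameter logistic fits of vehicle-normalized rates. Rates are linear-regression slopes of NADH absorbance at 340 nm, read kinetically over 75 min, with ADP coupled to NADH oxidation via pyruvate kinase/lactate dehydrogenase.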

[3] = target: T1, Porcine ventricle myofibrils (ventricular myosin ATPase) (Sus scrofa, UniProt P79293); assay: Myofibril ATPase assay, porcine ventricle myofibrils; format: biochemical, porcine (Yucatan minipigs)
T1 construct: Myofibrils from porcine cardiac muscle was isolated from the left ventricle of Yucatan minipigs; tissue Exemplar Genetics; host or cells: left ventricle of Yucatan minipigs, myofibrils prepared in house
How it was run: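 In a coupled enzyme format, ADP from myofibril ATPase drives NADH oxidation, monitored kinetically at 340 nm for 75 min using minipig ventricle myofibrils. Effective concentrations giving 25% loss or gain of activity relative to vehicle were calculated from 4-parameter fits.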

[4] = Y75 value (no ‡ mark), porcine atria myofibrils
[5] = Y75 value (no ‡ mark), porcine ventricle myofibrils
[6] = porcine atria myofibrils, Y75 value (75% activity relative to no compound)
[7] = porcine ventricle myofibrils, Y75 value

T1 sequence (P79293 whole entry): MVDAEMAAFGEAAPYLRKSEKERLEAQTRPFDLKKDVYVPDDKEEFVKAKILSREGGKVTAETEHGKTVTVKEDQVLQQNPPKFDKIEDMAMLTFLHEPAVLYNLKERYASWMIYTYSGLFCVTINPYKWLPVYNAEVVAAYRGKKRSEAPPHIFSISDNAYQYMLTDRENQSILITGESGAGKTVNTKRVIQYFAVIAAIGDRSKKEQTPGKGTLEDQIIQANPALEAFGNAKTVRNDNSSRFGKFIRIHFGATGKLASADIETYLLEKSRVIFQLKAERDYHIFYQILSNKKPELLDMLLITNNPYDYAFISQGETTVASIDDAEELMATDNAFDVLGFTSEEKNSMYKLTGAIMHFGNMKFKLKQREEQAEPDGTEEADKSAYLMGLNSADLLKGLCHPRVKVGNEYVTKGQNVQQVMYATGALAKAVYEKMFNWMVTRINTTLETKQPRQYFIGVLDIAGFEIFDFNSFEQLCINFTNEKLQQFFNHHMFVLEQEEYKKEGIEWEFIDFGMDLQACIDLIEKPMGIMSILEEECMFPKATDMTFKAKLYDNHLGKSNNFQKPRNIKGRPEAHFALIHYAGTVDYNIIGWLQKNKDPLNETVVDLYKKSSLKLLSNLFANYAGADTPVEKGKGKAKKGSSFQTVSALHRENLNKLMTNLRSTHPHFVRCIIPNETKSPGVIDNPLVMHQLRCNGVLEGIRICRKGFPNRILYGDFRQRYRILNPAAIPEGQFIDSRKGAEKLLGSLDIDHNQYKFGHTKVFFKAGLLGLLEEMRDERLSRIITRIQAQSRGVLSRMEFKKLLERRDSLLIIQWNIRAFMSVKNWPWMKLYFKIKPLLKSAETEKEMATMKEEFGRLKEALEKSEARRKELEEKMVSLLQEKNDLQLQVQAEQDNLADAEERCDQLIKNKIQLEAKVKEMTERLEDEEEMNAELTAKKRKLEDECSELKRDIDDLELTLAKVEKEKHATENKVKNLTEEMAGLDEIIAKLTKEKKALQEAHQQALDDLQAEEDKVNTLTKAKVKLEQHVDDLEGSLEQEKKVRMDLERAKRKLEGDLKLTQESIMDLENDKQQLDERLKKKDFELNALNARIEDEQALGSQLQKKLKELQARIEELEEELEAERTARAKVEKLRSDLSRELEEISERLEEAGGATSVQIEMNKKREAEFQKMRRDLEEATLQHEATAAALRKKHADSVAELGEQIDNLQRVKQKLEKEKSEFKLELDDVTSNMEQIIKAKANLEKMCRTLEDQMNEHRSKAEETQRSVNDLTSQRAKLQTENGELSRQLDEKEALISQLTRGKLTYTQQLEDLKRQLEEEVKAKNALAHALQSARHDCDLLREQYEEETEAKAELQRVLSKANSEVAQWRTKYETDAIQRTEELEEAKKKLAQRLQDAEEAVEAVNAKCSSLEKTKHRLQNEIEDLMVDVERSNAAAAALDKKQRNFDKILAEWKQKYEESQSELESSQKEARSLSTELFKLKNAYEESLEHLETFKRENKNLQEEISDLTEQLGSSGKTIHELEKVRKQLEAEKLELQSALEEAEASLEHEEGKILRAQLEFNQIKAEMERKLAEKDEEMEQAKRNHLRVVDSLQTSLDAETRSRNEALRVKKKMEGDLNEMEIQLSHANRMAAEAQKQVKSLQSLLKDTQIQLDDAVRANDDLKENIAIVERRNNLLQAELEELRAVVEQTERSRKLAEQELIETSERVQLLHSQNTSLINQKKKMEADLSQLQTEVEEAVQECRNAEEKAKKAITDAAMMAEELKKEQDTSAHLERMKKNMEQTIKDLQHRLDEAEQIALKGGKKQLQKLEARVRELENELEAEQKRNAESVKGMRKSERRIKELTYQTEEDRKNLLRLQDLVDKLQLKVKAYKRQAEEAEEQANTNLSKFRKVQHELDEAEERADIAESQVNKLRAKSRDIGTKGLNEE

| SMILES | Skeletal EC25 ([1]; Y75 value (no ‡ mark)) | Atrial EC25 [2, 4] | Ventricular EC25 [3, 5] | Skeletal EC25 ([1]; Y75 value) | Atrial EC25 [2, 6] | Ventricular EC25 [3, 7] | further results |
| --- | --- | --- | --- | --- | --- | --- | --- |
| Cc1cc(C#N)nnc1[C@H](C)NC(=O)Cc1c(C)c2cc(F)ccc2[nH]c1=O [compound 1059] | 390 nM | 130 nM | 160 nM | – | – | – | – |
| Cc1nncc2[nH]c(=O)c(CC(=O)N[C@H](C)c3ncc(C#N)cc3F)cc12 [compound 451] | – | – | – | 100000 nM | 100000 nM | 100000 nM | – |
| Cc1nccc2[nH]c(=O)c([C@H](C)C(=O)N[C@@H](C)c3ccc(F)cc3F)c(C)c12 (single isomer, unassigned) [compound 398] | – | – | – | 230 nM | 2730 nM | 59630 nM | – |
| Cc1c(C2(C(=O)N[C@H]3CCc4cc(C#N)cnc43)CC2)c(=O)[nH]c2ccc(F)cc12 (single isomer, unassigned) [compound 2504] | 100000 nM | 100000 nM | 100000 nM | – | – | – | – |
| Cc1c(CC(=O)N[C@@H](CO)c2ccc(C#N)cc2F)c(=O)[nH]c2ccnc(C(F)(F)F)c12 (single isomer, unassigned) [compound 225] | – | – | – | 30 nM | 80 nM | 2460 nM | – |
| Cc1c(C2(C(=O)N[C@@H]3CCc4cc(C#N)cnc43)CC2)c(=O)[nH]c2ccc(F)cc12 (single isomer, unassigned) [compound 2503] | 100000 nM | 100000 nM | 100000 nM | – | – | – | – |
| C[C@@H](NC(=O)Cc1c(C2CC2)c2cc(F)ccc2[nH]c1=O)c1ccc(C#N)cc1F [compound 73] | 20 nM | 100000 nM | 100000 nM | – | – | – | – |
| C[C@@H](NC(=O)C1(c2cc3c(F)c(F)ccc3[nH]c2=O)CC1)c1cnc(C#N)cn1 (single isomer, unassigned) [compound 4829] | 1150 nM | 450 nM | 6130 nM | – | – | – | – |
| C[C@H](NC(=O)[C@H](C)c1c(C(F)(F)F)c2cnccc2[nH]c1=O)c1ccc(F)cc1F (single isomer, unassigned) [compound 427] | – | – | – | 2020 nM | 2530 nM | 22600 nM | – |
| COc1cccc([C@@H](C)NC(=O)Cc2c(C)c3c(C)nccc3[nH]c2=O)n1 (single isomer, unassigned) [compound 309] | – | – | – | 100000 nM | 100000 nM | 100000 nM | – |
| Cc1c(CC(=O)N[C@@H](C)c2cnc(C#N)nc2)c(=O)[nH]c2cc(F)c(F)cc12 (single isomer, unassigned) [compound 2075] | 40 nM | 70 nM | 520 nM | – | – | – | – |
| Cc1c(CC(=O)N[C@@H](C)c2ccc(C#N)cc2F)c(=O)[nH]c2ccnc(C(F)(F)F)c12 [compound 162] | – | – | – | 20 nM | 130 nM | 110 nM | – |
| Cc1cc([C@H](C)NC(=O)Cc2c(C)c3cc(F)ccc3[nH]c2=O)ncc1F [compound 1061] | 100000 nM | 2490 nM | 100000 nM | – | – | – | – |
| Cc1c(CC(=O)N[C@H]2CCc3cc(C#N)cnc32)c(=O)[nH]c2ccc(F)cc12 [compound 1093] | 100000 nM | 100000 nM | 100000 nM | – | – | – | – |
| Cc1c(CC(=O)N[C@H](C)c2ccc(C#N)cn2)c(=O)[nH]c2ccc(F)c(C3CC3)c12 [compound 23] | 500 nM | 100000 nM | 1190 nM | – | – | – | – |
| Cc1c(CC(=O)N[C@@H](c2ccc(F)cc2F)C(C)(C)O)c(=O)[nH]c2ccnc(C#N)c12 (single isomer, unassigned) [compound 279] | – | – | – | 1290 nM | 78180 nM | 100000 nM | – |

| SMILES | Skeletal EC25 ([1]; Y75 value (no ‡ mark)) | Atrial EC25 [2, 4] | Ventricular EC25 [3, 5] | Skeletal EC25 ([1]; Y75 value) | Atrial EC25 [2, 6] | Ventricular EC25 [3, 7] | further results |
| --- | --- | --- | --- | --- | --- | --- | --- |
| Cc1ncc(C#N)nc1C(C)NC(=O)Cc1c(C)c2c(C)nccc2[nH]c1=O (stereo not drawn) [compound 461] | – | – | – | 100000 nM | 94450 nM | 15980 nM | – |
| COc1ccc2[nH]c(=O)c(CC(=O)N[C@@H](C)c3ccc(F)cc3F)cc2c1 [compound 124] | 42440 nM | 100000 nM | 100000 nM | – | – | – | – |
| Cc1c(CC(=O)N[C@@H](C)c2ccc(C#N)nn2)c(=O)[nH]c2cccc(C#N)c12 [compound 1039] | 80 nM | 220 nM | 670 nM | – | – | – | – |
| C[C@H](NC(=O)Cc1cc2c(F)c(F)ccc2[nH]c1=O)c1nc(C#N)co1 (single isomer, unassigned) [compound 4007] | – | – | – | – | – | – | Skeletal EC25 (μM), Y125 value (‡) ([1]; Y125 value: concentration required to increase myosin ATP-ase activity by 25%, Rabbit Psoas Prep pCa 25 GEOM_MEAN): 100.00‡ μM; Atrial EC25 ([2]; Y75 value: concentration required to reduce myosin ATP-ase activity by 25%, Porcine Atria Prep pCa 25 GEOM_MEAN): 100000 nM; Ventricular EC25 ([3]; Y75 value: concentration required to reduce myosin ATP-ase activity by 25%, Porcine Ventricle Prep pCa 25 GEOM_MEAN): 100000 nM |
| Cc1c(CC(=O)N[C@H]2COc3cc(C#N)cc(F)c32)c(=O)[nH]c2ccc(F)c(C#N)c12 (single isomer, unassigned) [compound 60] | 270 nM | 50 nM | 620 nM | – | – | – | – |
| COc1ccc2[nH]c(=O)c(C(C)C(=O)N[C@@H](C)c3ccc(F)cc3F)cc2c1Cl (stereo partly drawn) [compound 87] | 100000 nM | 100000 nM | 100000 nM | – | – | – | – |
| Cc1c(F)ccc2[nH]c(=O)c(C(F)(F)C(=O)N[C@@H](C)c3ncc(C#N)cc3F)c(C)c12 (single isomer, unassigned) [compound 4812] | 50 nM | 190 nM | 180 nM | – | – | – | – |
| Cc1nccc2[nH]c(=O)c(CC(=O)N[C@H](c3ccc(F)cc3F)C(C)(C)O)c(C)c12 (single isomer, unassigned) [compound 272] | – | – | – | 100000 nM | 100000 nM | 100000 nM | – |
| Cc1nccc2[nH]c(=O)c(CC(=O)N[C@@H](C)c3ccc(C#N)cc3F)c(Cl)c12 [compound 152] | – | – | – | 10 nM | 50 nM | 90 nM | – |
| C[C@H](NC(=O)Cc1c(C(F)(F)F)c2cc(F)ccc2[nH]c1=O)c1ccc(F)cc1F [compound 115] | 20 nM | 50 nM | 320 nM | – | – | – | – |
| Cc1cc([C@H](C)NC(=O)Cc2c(C)c3c(C)c(F)ccc3[nH]c2=O)ncc1F (single isomer, unassigned) [compound 2077] | 290 nM | 1500 nM | 100000 nM | – | – | – | – |
| Cc1ccncc1[C@@H](C)NC(=O)Cc1c(C)c2c(C)c(F)ccc2[nH]c1=O [compound 1046] | 40 nM | 60 nM | 140 nM | – | – | – | – |
| Cc1c(CC(=O)N[C@@H](C)c2ncc(C#N)cc2F)c(=O)[nH]c2ccc(F)c(C#N)c12 [compound 32] | 10 nM | 50 nM | 40 nM | – | – | – | – |
| Cc1nccc2[nH]c(=O)c(C(F)(F)C(=O)N[C@H](C)c3cnc(C#N)cn3)c(C)c12 (single isomer, unassigned) [compound 3520] | – | – | – | 250 nM | 2380 nM | 4500 nM | – |
| Cc1nc(C#N)cnc1[C@@H](C)NC(=O)C(F)(F)c1c(C)c2cc(F)ccc2[nH]c1=O (single isomer, unassigned) [compound 2567] | 330 nM | 340 nM | 1070 nM | – | – | – | – |
